Source: patent publication US11098032B2, “Pyran dervatives as CYP11A1 (cytochrome P450 monooxygenase 11A1) inhibitors” (ORION CORPORATION, priority 2016, dated 2021)
Structures can show the parent of a compound that is named as a salt.

The compounds below were run against T1, CYP11A1 (Homo sapiens, UniProt P05108) (assay: CYP11A1 inhibition: modified isocaproic acid release assay (IARA) in H295R cells). Details: human H295R adrenocortical carcinoma cells treated three days, 3 nM [24,25-3H]-labelled cholesterol, 1% DMSO, 10 concentrations in duplicates; read-out: IC50 of the test compounds on CYP11A1 inhibition.
T1 construct: human H295R adrenocortical carcinoma cell line was used as source of enzyme; endogenous in cells; host or cells: H295R human adrenocortical carcinoma cells
T1 sequence (P05108 40-521): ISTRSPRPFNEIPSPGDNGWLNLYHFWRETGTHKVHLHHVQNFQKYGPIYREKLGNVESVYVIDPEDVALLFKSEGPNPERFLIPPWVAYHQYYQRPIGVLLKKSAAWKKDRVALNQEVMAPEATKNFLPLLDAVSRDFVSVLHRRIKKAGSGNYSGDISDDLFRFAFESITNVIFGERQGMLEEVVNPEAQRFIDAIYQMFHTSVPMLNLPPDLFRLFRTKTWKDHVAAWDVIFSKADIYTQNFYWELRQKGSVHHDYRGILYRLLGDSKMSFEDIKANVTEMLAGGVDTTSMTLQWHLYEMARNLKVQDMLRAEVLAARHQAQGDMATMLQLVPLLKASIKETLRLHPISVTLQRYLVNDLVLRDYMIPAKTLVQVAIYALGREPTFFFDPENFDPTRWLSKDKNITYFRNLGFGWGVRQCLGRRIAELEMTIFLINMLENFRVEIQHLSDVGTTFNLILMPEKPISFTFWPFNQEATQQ
Type: cell-based
Description: The ability of the test compounds to inhibit conversion of cholesterole to pregnenolone and isocaproic acid was measured by modification of isocaproic acid release assay (IARA) described by Ruangwises et. al. (Biology of Reproduction 1991; 45(1):143-50) except that human H295R adrenocortical carcinoma cell line was used as source of enzyme and extraction was done with dextran-coated charcoal suspension (Isomaa, V. et al., Endocrinology 1982; 111(3):833-843). […] To determine the half maximal inhibitory concentration (IC50) of the test compounds on CYP11A1 inhibition, the cells were treated for three days with increasing concentrations of the test compounds in the presence of 3 nM [24,25-3H]-labelled cholesterol (American Radiolabelled Chemicals). The final DMSO concentration was 1%. Cell culture medium was extracted with dextran-coated charcoal suspension and the radiolabelled isocaproic acid was determined by mixing 100 μl of supernatant fraction in 200 μl of scintillation fluid (OptiPhase SuperMix, Perkin Elmer). Radioactivity was measured using a Microbeta scintillation counter (1450 MicroBeta Trilux, Wallac). All the test compounds were studied at 10 concentrations in duplicates.
O=c1cc(CN2Cc3ccccc3C2)occ1OCC1CN(S(=O)(=O)c2csc(Cl)c2)C1 [Compound 30, 5-((1-((5-Chlorothiophen-3-yl)sulfonyl)azetidin-3-yl)methoxy)-2-(isoindolin-2-ylmethyl)-4H-pyran-4-one] showed an IC50 of 150 to 300 nM. Compound CN(C)C(=O)N1CCC(COc2coc(CN3Cc4ccc(F)cc4C3)cc2=O)CC1 [Compound 181, 4-(((6-((5-Fluoroisoindolin-2-yl)methyl)-4-oxo-4H-pyran-3-yl)oxy)methyl)-N,N-dimethylpiperidine-1-carboxamide] has an IC50 of 150 to 300 nM. CC(C)(C)NC(=O)c1ccc(COc2coc(CN3CCc4ccccc4C3)cc2=O)cc1 [Compound 135, N-(tert-Butyl)-4-(((6-((3,4-dihydroisoquinolin-2(1H)-yl)methyl)-4-oxo-4H-pyran-3-yl)oxy)methyl)benzamide] was tested, and the IC50 was 150 to 300 nM. Work on CC(C)S(=O)(=O)N1CCC(F)(COc2coc(CN3Cc4ccccc4C3)cc2=O)CC1 [Compound 236, 5-((4-Fluoro-1-(isopropylsulfonyl)piperidin-4-yl)methoxy)-2-(isoindolin-2-ylmethyl)-4H-pyran-4-one] yielded an IC50 of 150 to 300 nM. Work on CN(C)C(=O)c1ccc(COc2coc(CN3Cc4cc(F)c(F)cc4C3)cc2=O)cc1 [Compound 82a, 4-(((6-((5,6-Difluoroisoindolin-2-yl)methyl)-4-oxo-4H-pyran-3-yl)oxy)methyl)-N,N-dimethylbenzamide] yielded an IC50 of 150 to 300 nM. For CCCCNC(=O)c1ccc(COc2coc(CN3Cc4ccccc4C3)cc2=O)cc1 [Compound 169, N-Butyl-4-(((6-(isoindolin-2-ylmethyl)-4-oxo-4H-pyran-3-yl)oxy)methyl)-benzamide], the IC50 was 150 to 300 nM. O=C(c1ccc(COc2coc(CN3Cc4ccc(Cl)cc4C3)cc2=O)cc1)N1CC(F)(F)C1 [Compound 163, 2-((5-Chloroisoindolin-2-yl)methyl)-5-((4-(3,3-difluoroazetidine-1-carbonyl)-benzyl)oxy)-4H-pyran-4-one] gave an IC50 of 150 to 300 nM. In the case of CS(=N)c1ccc(COc2coc(CN3Cc4ccc(C(F)(F)F)cc4C3)cc2=O)cc1 (centres unmarked) [Compound 74, 5-((4-(S-methylsulfinimidoyl)benzyl)oxy)-2-((5-(trifluoromethyl)isoindolin-2-yl)methyl)-4H-pyran-4-one], the IC50 is reported as less than 150 nM. With O=c1cc(CN2Cc3ccc(F)cc3C2)occ1OCc1ccc(C2(O)COC2)cc1 [Compound 115, 2-((5-Fluoroisoindolin-2-yl)methyl)-5-((4-(3-hydroxyoxetan-3-yl)benzyl)oxy)-4H-pyran-4-one] the IC50 was less than 150 nM. CS(C)(=O)=NC(=O)c1ccc(COc2coc(CN3Cc4ccc(F)cc4C3)cc2=O)cc1 [Compound 84, N-[Dimethyl(oxido)-λ^6-sulfanylidene]-4-[({6-[(5-fluoro-1,3-dihydro-2H-iso-indol-2-yl)methyl]-4-oxo-4H-pyran-3-yl}oxy)methyl]benzamide] showed an IC50 of less than 150 nM. For CC(C)CS(=O)(=O)c1ccc(COc2coc(CN3Cc4ccccc4C3)cc2=O)cc1 [Compound 73, 5-((4-(Isobutylsulfonyl)benzyl)oxy)-2-(isoindolin-2-ylmethyl)-4H-pyran-4-one], the IC50 was less than 150 nM. In the case of O=c1cc(CN2Cc3ccccc3C2)occ1OCc1ccc(Br)cc1 [Compound 58, 5-((4-Bromobenzyl)oxy)-2-(isoindolin-2-ylmethyl)-4H-pyran-4-one], the IC50 is reported as 301 to 2000 nM. O=C1NCc2cc(COc3coc(CN4Cc5ccccc5C4)cc3=O)ccc21 [Compound 180, 5-(((6-(Isoindolin-2-ylmethyl)-4-oxo-4H-pyran-3-yl)oxy)methyl)isoindolin-1-one] was tested, and the IC50 was 150 to 300 nM. COCCS(=O)(=O)N1CCC(COc2coc(CN3Cc4ccccc4C3)cc2=O)CC1 [Compound 262, 2-(Isoindolin-2-ylmethyl)-5-((1-((2-methoxyethyl)sulfonyl)piperidin-4-yl)-methoxy)-4H-pyran-4-one] was tested, and the IC50 was less than 150 nM. With O=c1cc(CN2Cc3ccccc3C2)occ1OCc1ccc(S(=O)(=O)N2CCC2)cc1 [Compound 9, 5-((4-(Azetidin-1-ylsulfonyl)benzyl)oxy)-2-(isoindolin-2-ylmethyl)-4H-pyran-4-one] the IC50 was 150 to 300 nM. In the case of O=C(c1ccc(COc2coc(CN3Cc4ccccc4C3)cc2=O)c(F)c1)N1CCC1 [Compound 95, 5-((4-(Azetidine-1-carbonyl)-2-fluorobenzyl)oxy)-2-(isoindolin-2-ylmethyl)-4H-pyran-4-one], the IC50 is reported as less than 150 nM. With C[C@@H]1c2ccccc2CN1Cc1cc(=O)c(OCc2ccc(C(=O)N(C)C)cc2)co1 [Compound 133, (R)—N,N-Dimethyl-4-(((6-((1-methylisoindolin-2-yl)methyl)-4-oxo-4H-pyran-3-yl)oxy)methyl)benzamide] the IC50 was 301 to 2000 nM. In the case of CN(C)S(=O)(=O)N1CCC(COc2coc(CN3Cc4ccccc4C3)cc2=O)CC1 [Compound 225, 4-(((6-(Isoindolin-2-ylmethyl)-4-oxo-4H-pyran-3-yl)oxy)methyl)-N,N-dimethyl-piperidine-1-sulfonamide], the IC50 is reported as less than 150 nM. With O=C(c1ccc(COc2coc(CN3Cc4ccccc4C3)cc2=O)cc1)N1CCC1 [Compound 129, 5-((4-(Azetidine-1-carbonyl)benzyl)oxy)-2-(isoindolin-2-ylmethyl)-4H-pyran-4-one] the IC50 was less than 150 nM. For CC(=O)[C@H]1CC[C@H](COc2coc(CN3Cc4ccccc4C3)cc2=O)CC1 [Compound 244, 5-(((1r,4r)-4-Acetylcyclohexyl)methoxy)-2-(isoindolin-2-ylmethyl)-4H-pyran-4-one], the IC50 was less than 150 nM. O=C(c1ccc(COc2coc(CN3Cc4ccc(F)cc4C3)cc2=O)cc1)N1CCC1 [Compound 150, 5-((4-(Azetidine-1-carbonyl)benzyl)oxy)-2-((5-fluoroisoindolin-2-yl)methyl)-4H-pyran-4-one] was tested, and the IC50 was 301 to 2000 nM. Compound CC(C)CS(=O)(=O)N1CCC(COc2coc(CN3Cc4ccccc4C3)cc2=O)CC1 [Compound 271, 5-((1-(Isobutylsulfonyl)piperidin-4-yl)methoxy)-2-(isoindolin-2-ylmethyl)-4H-pyran-4-one] has an IC50 of less than 150 nM. For O=c1cc(CN2Cc3ccccc3C2)occ1OCC1CCN(S(=O)(=O)N2CCC2)CC1 [Compound 268, 5-((1-(Azetidin-1-ylsulfonyl)piperidin-4-yl)methoxy)-2-(isoindolin-2-ylmethyl)-4H-pyran-4-one], the IC50 was 150 to 300 nM. O=c1cc(CN2Cc3ccccc3C2)occ1OC[C@H]1C=C[C@@H](NS(=O)(=O)C2CC2)C1 (relative stereo) [Compound 274, Cis-N-(4-(((6-(isoindolin-2-ylmethyl)-4-oxo-4H-pyran-3-yl)oxy)methyl)cyclo-pent-2-en-1-yl)cyclopropanesulfonamide, Formate] was tested, and the IC50 was 301 to 2000 nM. Compound O=c1cc(CN2Cc3ccccc3C2)occ1OCC1CCSCC1 [Compound 196, 2-(Isoindolin-2-ylmethyl)-5-((tetrahydro-2H-thiopyran-4-yl)methoxy)-4H-pyran-4-one] has an IC50 of less than 150 nM. NC(=O)c1ccc(COc2coc(CN3CCc4ccccc4C3)cc2=O)c(F)c1 [Compound 55, 4-(((6-((3,4-Dihydroisoquinolin-2(1H)-yl)methyl)-4-oxo-4H-pyran-3-yl)oxy)-methyl)-3-fluorobenzamide] was tested, and the IC50 was 301 to 2000 nM. Work on O=c1cc(CN2Cc3ccccc3C2)occ1OCc1ccc([N+](=O)[O-])cc1 [Compound 38, 2-(Isoindolin-2-ylmethyl)-5-((4-nitrobenzyl)oxy)-4H-pyran-4-one] yielded an IC50 of 301 to 2000 nM. Compound O=C(c1ccc(COc2coc(CN3Cc4ccccc4C3)cc2=O)cc1)N1CC(F)(F)C1 [Compound 158, 5-((4-(3,3-Difluoroazetidine-1-carbonyl)benzyl)oxy)-2-(isoindolin-2-ylmethyl)-4H-pyran-4-one] has an IC50 of 150 to 300 nM. Work on CCS(=N)(=O)c1ccc(COc2coc(CN3CCc4ccccc4C3)cc2=O)cc1 (centres unmarked) [Compound 166, 2-((3,4-Dihydroisoquinolin-2(1H)-yl)methyl)-5-((4-(ethylsulfonimidoyl)-benzyl)oxy)-4H-pyran-4-one] yielded an IC50 of 301 to 2000 nM. Work on CC(C)(CO)NC(=O)c1ccc(COc2coc(CN3Cc4ccccc4C3)cc2=O)cc1 [Compound 283, N-(1-hydroxy-2-methylpropan-2-yl)-4-(((6-(isoindolin-2-ylmethyl)-4-oxo-4H-pyran-3-yl)oxy)methyl)benzamide] yielded an IC50 of 150 to 300 nM. CS(=O)(=O)N1[C@@H]2CC[C@H]1CC(COc1coc(CN3Cc4ccccc4C3)cc1=O)C2 (stereo partly drawn) [Compound 177, 2-(Isoindolin-2-ylmethyl)-5-(((1R,5S)-8-(methylsulfonyl)-8-azabicyclo[3.2.1]-octan-3-yl)methoxy)-4H-pyran-4-one] showed an IC50 of 150 to 300 nM. Work on C[S+]([O-])c1ccc(COc2coc(CN3Cc4ccccc4C3)cc2=O)cc1 (centres unmarked) [Compound 81, 2-(Isoindolin-2-ylmethyl)-5-((4-(methylsulfinyl)benzyl)oxy)-4H-pyran-4-one] yielded an IC50 of 150 to 300 nM.
